# Source: US7648959B2, “Methods and compositions for the treatment of diseases of the eye” (Merck Patent GmbH, priority 2000, dated 2010)
# Several values for one entry are separate records, joined by “and”; a condition that tells them apart may be missing. Equal values may be shown once.
# Tested on: bFGF-Stimulated Corneal Angiogenesis
# Test: rabbit corneal micropocket model, paralimbal intrascleral injection
# Format: in vivo
# Conditions: for Area of neovascularisation, MEAN / Area of neovascularisation (individual eye): single (Day 0) intrascleral injection, 100 μl, 2.0 mg/ml in PBS; for Area of neovascularisation, MEAN: mean of 12 eyes; for Area of neovascularisation (individual eye): one value per rabbit eye (R/L); for neovascularisation inhibited compared to the animal group receiving PBS only: single intrascleral injection 100 μl, 2.0 mg/ml, p<0.01
# Description: (1996). In this model angiogenesis is stimulated by implantation of Hydron pellets containing an angiogenesis stimulating cytokine like, for example, fibroblast growth factor (FGF) or vascular endothelial growth factor (VEGF) into the cornea. After implantation the active compound to be tested is administered by paralimbal intrascleral injection. Effect on neovascularisation is measured after predetermined time intervals by visual examination using a microscope, photographing and computer-assisted quantification of photographs.
# The effect of intrascleral application of an αvβ3 and/or αvβ5 inhibitor was examined in rabbit corneal micropocket model as described by Shaffer R. W. (see above). As an example for an αvβ3 and/or αvβ5 inhibitor (2S)-2-(2,2-dimethylpropyloxycarboxamido)-3-{3,4-dihydro-2-[N-(2-imidazolyl)carbamoylethyl]-(2S)-2H-1,4-benzoxazin-3-on-6-yl}propionic acid was used in the experiment. For induction of angiogenesis Hydron pellets containing basic fibroblast growth factor (bFGF) were used. Preparation of bFGF containing implants was performed by casting Hydron [poly(hydroxyethyl)methacrylate] in specially prepared Teflon pegs that have a 5 mm core drilled into their surfaces. Approximately 12 μl of casting material was placed into each peg and polymerized overnight in a sterile hood, then sterilized by ultraviolet irradiation.
# The experiment consisted of 12 animals; in each eye of the animals one individual pellet was implanted into a surgically created “pocket” in the mid stroma of the rabbit cornea. The surgical procedure was done under sterile technique using a Wild model M691 operating microscope equipped with a beamsplitter and camera for photographically recording individual corneas. A 69 Beaver blade was used to create a 3 mm by 5 mm “pocket” to a depth of half the corneal thickness. The stroma was dissected peripherally using an spatula and the pellet implanted with its peripheral margin 2 mm from limbus. Immediately after implantation of bFGF-containing Hydron pellets 6 of the 12 animals received in each eye 100 μl of a drug solution consisting of 2.0 mg/ml (2S)-2-(2,2-dimethylpropyloxycarboxamido)-3-3,4-dihydro-2-[N-(2-imidazolyl)carbamoylethyl]-(2S)-2H-1,4-benzoxazin-3-on-6-yl}propionic acid solubilized in phosphate buffered saline (PBS) by paralimbal intrascleral injection. For comparison the same procedure was performed in the other 6 animals using PBS only. Following implantation the eyes were photographed and the area of neovascularisation measured after predetermined intervals.
smiles,measurement,setting,value
"CC(C)(C)COC(=O)N[C@@H](Cc1ccc2c(c1)NC(=O)[C@H](CCC(=O)Nc1ncc[nH]1)O2)C(=O)O [(2S)-2-(2,2-dimethylpropyloxycarboxamido)-3-{3,4-dihydro-2-[N-(2-imidazolyl)carbamoylethyl]-(2S)-2H-1,4-benzoxazin-3-on-6-yl}propionic acid]","Area of neovascularisation, MEAN",5 Day Post-Implantation,8.39 mm^2
same,Area of neovascularisation (individual eye),5 Day Post-Implantation,3.47 mm^2 and 26.79 mm^2 and 14.76 mm^2 and 7.70 mm^2 and 1.00 mm^2 and 0.88 mm^2 and 8.19 mm^2 and 2.26 mm^2 and 0.0 mm^2 and 7.31 mm^2 and 15.85 mm^2 and 12.45 mm^2
same,"Area of neovascularisation, MEAN",7 Day Post-Implantation,10.32 mm^2
same,Area of neovascularisation (individual eye),7 Day Post-Implantation,6.69 mm^2 and 27.96 mm^2 and 15.58 mm^2 and 11.32 mm^2 and 2.09 mm^2 and 1.91 mm^2 and 11.93 mm^2 and 3.51 mm^2 and 0.0 mm^2 and 11.56 mm^2 and 16.90 mm^2 and 14.40 mm^2
same,neovascularisation inhibited compared to the animal group receiving PBS only,5 days post implantation,56.5%
same,neovascularisation inhibited compared to the animal group receiving PBS only,7 days post implantation,52.3%
